According to publication PMC9032693, “Biological Evaluation of New Thienopyridinium and Thienopyrimidinium Derivatives as Human Choline Kinase Inhibitors” (Pharmaceutics, 2022):

Columns and labels:
Jurkat = assay: Antiproliferative activity, resazurin assay, 72 h; format: cell-based, human
Description: (§1) Human cervix carcinoma (HeLa), Non-small lung adenocarcinoma (A549), Colon adenocarcinoma (HT29), and human triple negative breast cancer (MDA-MB-231) were cultured in Dulbecco’s modified Eagle’s media (DMEM). B-acute lymphoblastic leukemia (RS4;11 and SEM), T-acute lymphoblastic leukemia (Jurkat), and human promyelocytic cells (HL-60), were cultured in RPMI-1640 medium. Both media were purchased from Gibco, Life Technologies (Milan, Italy) and supplemented with 10% Fetal Bovine Serum (FBS, Invitrogen, Milan, Italy,). Every six months, each cell line was checked for the presence of mycoplasma by RT-PCR.
(§2) Stock solutions (10 mM) of the different compounds were made in DMSO. Cancer cells were seeded in tissue-treated, flat bottom, 384-well plates (Corning) according to their optimal density, (A549 1000 cells/wells; MDA-MB-231, HeLa and HT-29 2000 cells/well and finally Jurkat, HL-60 SEM and RS4;11 20.000 cells/well) in 27 µL of complete medium per well.
(§3) The day after cell seeding and immediately before cell treatment, 10 mM stock solutions of the compounds were pre-diluted to a […] concentration in 250 µL of Hank’s in a 96-well plate (Corning). Subsequent 1:5 dilutions were carried out using a microlab STAR 96-CORE liquid handling system (Hamilton), a robotized liquid handling tool that was employed for all steps, from cell seeding to drug dilution and cell treatment to ensure high reproducibility while reducing time for large screening execution. This pre-dilution step was necessary to avoid DMSO-related cytotoxicity and compound precipitation in the cell culture medium. In every case, DMSO concentration never exceeded 0.1%.
(§4) Positive (Bortezomib 1 µM) and negative (0.1% DMSO) controls were included in all the screened plates to allow for monitoring the Z’ factor throughout the entire screening. Cells were treated with 3 µL of the previously made dilutions; thus, generating a 6-point 5-fold dose–response curve starting from 10 µM. Within a plate, each drug concentration was tested in duplicate in two independent experiments for each compound.
(§5) Treated cells were then placed inside the CO2 incubator for 72 h at 37 °C. Cell viability was assessed by resazurin assay, in which 3 µL of resazurin per well were added using the previously described automated platform. Plates were placed in the incubator at 37 °C for 2 h, and then the fluorescence of each plate was read using a Spark 10 M multimode microplate reader (Tecan Group Ltd., Mannedorf, Switzerland) with 535 nm excitation wavelength and 600 nm emission wavelength.

MDA-MB-231 = assay: Antiproliferative activity, resazurin assay, 72 h; format: cell-based, human
Description: as §1, §2, §3, §4, §5

HeLa = assay: Antiproliferative activity, resazurin assay, 72 h; format: cell-based, human
Description: as §1, §2, §3, §4, §5

SEM cells = assay: Antiproliferative activity, resazurin assay, 72 h; format: cell-based, human
Description: as §1, §2, §3, §4, §5

RS 4;11 = assay: Antiproliferative activity, resazurin assay, 72 h; format: cell-based, human
Description: as §1, §2, §3, §4, §5

HL-60 = assay: Antiproliferative activity, resazurin assay, 72 h; format: cell-based, human
Description: as §1, §2, §3, §4, §5

A549 = assay: Antiproliferative activity, resazurin assay, 72 h; format: cell-based, human
Description: as §1, §2, §3, §4, §5

HT29 = assay: Antiproliferative activity, resazurin assay, 72 h; format: cell-based, human
Description: as §1, §2, §3, §4, §5

CKα1 = target: T1, CKα1 (Homo sapiens, UniProt P35790); assay: Choline kinase assay ([methyl-14C]choline into PCho, purified enzyme); format: biochemical; details: for IC50: concentration required to inhibit CKα1 enzyme by 50%; for % Inhibition at 10 µM: purified CKα1, inhibitor 10 µM; for % Inhibition at 10 µM / % Inhibition at 30 µM: end-point assay; for % Inhibition at 30 µM: purified CKα1, inhibitor 30 µM
T1 construct: an N-terminally His-tagged truncated form of CKα1 (Δ75–457) was cloned into a pET-28a vector; His tag (N); made in house; host or cells: E. coli BL21 (DE3) Star
Description: The protein was produced and purified as previously described. Briefly, an N-terminally His-tagged truncated form of CKα1 (Δ75–457) was cloned into a pET-28a vector and expressed at 37 °C in E. coli BL21 (DE3) Star cells using 1 mM isopropyl β-D-1-thiogalactopyranoside (IPTG). After centrifugation, the cellular pellet was resuspended in 50 mM Tris-HCl pH 7.5, 500 mM NaCl, 0.2 mM phenylmethylsulphonyl fluoride (PMSF), DNase, and 0.5 mM β-mercaptoethanol, sonicated and subjected to a two-step purification procedure to isolate the target enzyme. […] Protein elution was completed using buffer A + 400 mM imidazole. A second size-exclusion chromatography step was then carried out to achieve complete purity. To this end, we used a HiPrep 26/60 Sephacryl 100 HR column (GE Healthcare, Little Chalfont, Buckinghamshire, UK) and a 20 mM Tris/HCl pH 7.5, 150 mM NaCl running buffer.
To study the effect of the compounds on CKα, an in vitro enzymatic assay was performed using the purified enzyme as previously reported in [19, 28, 29]. Briefly, the incorporation of ^14C from [methyl-^14C]choline into PCho in either the absence (control) or presence of different inhibitors at varying concentrations was used to determine the CK activity. The reaction mixture included 20 ng of purified CKα1, 10 mM ATP, 10 mM MgCl2, 100 mM Tris-HCl pH 8.5, and increasing concentrations of compounds. The mixture was preincubated at 37 °C for 5 min. Then, [methyl-^14C]choline chloride (1 mM, 4500 dpm/nmol) was added and the reaction was left to proceed for 10 min at 37 °C. The assay was stopped by immersing the reaction tubes in boiling water. PCho was separated by Thin Layer Chromatography using methanol/0.6% NaCl/28% NH4OH in water (50:50:5, v/v/v) as solvent. The radioactivity associated into PCho was determined in a Beckman 6000-TA (Madrid, Spain) liquid scintillation counter. The 50% inhibitory concentrations (IC50 values) were determined from the % enzyme activity at different concentrations of synthetic inhibitors relative to the control by using a sigmoidal dose–response curve (ED50plus v1.0 software).

T1 sequence (P35790 75-457): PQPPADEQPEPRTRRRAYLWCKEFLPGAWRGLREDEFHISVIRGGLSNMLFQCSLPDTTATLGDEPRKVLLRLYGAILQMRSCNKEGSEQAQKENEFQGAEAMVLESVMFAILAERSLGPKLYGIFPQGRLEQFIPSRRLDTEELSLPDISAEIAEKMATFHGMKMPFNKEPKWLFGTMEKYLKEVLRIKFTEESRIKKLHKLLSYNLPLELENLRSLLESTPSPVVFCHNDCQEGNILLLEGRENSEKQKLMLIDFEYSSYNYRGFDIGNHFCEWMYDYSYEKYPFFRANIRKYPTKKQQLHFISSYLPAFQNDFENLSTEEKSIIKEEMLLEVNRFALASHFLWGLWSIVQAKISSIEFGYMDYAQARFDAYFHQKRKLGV

Compound | GI50 (Jurkat) | GI50 (MDA-MB-231) | GI50 (HeLa) | GI50 (HL-60) | GI50 (A549) | GI50 (HT29) | IC50 (CKα1) | % Inhibition at 10 µM (CKα1) | % Inhibition at 30 µM (CKα1) | IC50 (CKα1; listed as Fa-34) | GI50 (SEM cells) | GI50 (RS 4;11)
[Br-].[Br-].c1cc2c(N3CCCCC3)nc[n+](Cc3ccc(OCCOc4ccc(C[n+]5cnc(N6CCCCC6)c6ccsc65)cc4)cc3)c2s1 [Ff-5] | > 10000 nM | 1100 ± 200 nM | 1030 ± 100 nM | 200 ± 10 nM | 340 ± 60 nM | 1730 ± 300 nM | ≥ 5000 nM | 64.21% | 85.71% | – | 3270 ± 30 nM | 2450 ± 20 nM
[Br-].[Br-].c1cc2c(N3CCCCC3)nc[n+](Cc3ccc(CCCCc4ccc(C[n+]5cnc(N6CCCCC6)c6ccsc65)cc4)cc3)c2s1 [Ff-6] | 6700 ± 800 nM | 500 ± 20 nM | 420 ± 50 nM | 190 ± 10 nM | 190 ± 30 nM | 930 ± 40 nM | ≥ 10000 nM | 46.43% | 73.19% | – | 2520 ± 200 nM | 1500 ± 200 nM
[Br-].[Br-].c1cc2c(s1)c(N1CCCC1)nc[n+]2Cc1ccc(OCCOc2ccc(C[n+]3cnc(N4CCCC4)c4sccc43)cc2)cc1 [Ff-8] | > 10000 nM | 320 ± 50 nM | 910 ± 90 nM | 550 ± 20 nM | 290 ± 300 nM | 1890 ± 200 nM | – | 79.23% | 92.88% | – | > 10000 nM | 3470 ± 300 nM
[Br-].[Br-].c1cc2c(s1)c(N1CCCCCC1)nc[n+]2Cc1ccc(OCCOc2ccc(C[n+]3cnc(N4CCCCCC4)c4sccc43)cc2)cc1 [Ff-34] | 6100 ± 1100 nM | 910 ± 80 nM | 930 ± 10 nM | 270 ± 10 nM | 290 ± 30 nM | 1630 ± 100 nM | 700 ± 30 nM | 94.31% | 99.02% | 704 nM | 2500 ± 100 nM | 1800 ± 100 nM
[Br-].[Br-].c1cc2c(N3CCCCCC3)nc[n+](Cc3ccc(CCCCc4ccc(C[n+]5cnc(N6CCCCCC6)c6ccsc65)cc4)cc3)c2s1 [Ff-35, ((1,1′-((butane-1,4-diylbis(4,1-phenylene))bis(methylene))bis(4-(azepan-1-yl)thieno[2,3-d]pyrimidin-1-ium)) bromide] | 1540 ± 20 nM | 97 ± 1 nM | 300 ± 10 nM | 150 ± 10 nM | 140 ± 20 nM | 780 ± 30 nM | 460 ± 80 nM | – | – | – | 760 ± 30 nM | 950 ± 50 nM
[Br-].[Br-].c1cc2c(s1)c(N1CCCC1)cc[n+]2Cc1ccc(-c2ccc(C[n+]3ccc(N4CCCC4)c4sccc43)cc2)cc1 [Fg-9] | > 10000 nM | 2020 ± 200 nM | > 10000 nM | 9120 ± 1100 nM | 250 ± 20 nM | > 10000 nM | ≥ 5000 nM | 75.81% | 94.95% | – | > 10000 nM | > 10000 nM
[Br-].[Br-].c1cc2c(s1)c(N1CCCCCC1)cc[n+]2Cc1ccc(-c2ccc(C[n+]3ccc(N4CCCCCC4)c4sccc43)cc2)cc1 [Fg-10] | 6330 ± 600 nM | 1460 ± 200 nM | 1590 ± 100 nM | 440 ± 50 nM | 310 ± 10 nM | 1760 ± 200 nM | ≥ 10000 nM | 80.76% | 96.98% | – | 3510 ± 800 nM | 2770 ± 900 nM

More lines, main results first:

GI50 (Jurkat) | GI50 (MDA-MB-231) | GI50 (HeLa) | GI50 (HL-60) | GI50 (A549) | GI50 (HT29) | IC50 (CKα1) | % Inhibition at 10 µM (CKα1) | % Inhibition at 30 µM (CKα1) | IC50 (CKα1; listed as Fa-34) | Compound | GI50 (SEM cells) | GI50 (RS 4;11)
7540 ± 1500 nM | 360 ± 30 nM | 630 ± 20 nM | 210 ± 30 nM | 210 ± 20 nM | 1330 ± 10 nM | ≥ 5000 nM | 74.17% | 80.09% | – | [Br-].[Br-].c1cc2c(N3CCCC3)nc[n+](Cc3ccc(CCCCc4ccc(C[n+]5cnc(N6CCCC6)c6ccsc65)cc4)cc3)c2s1 [Ff-3] | 3700 ± 400 nM | 2050 ± 100 nM
> 10000 nM | 720 ± 30 nM | > 10000 nM | 790 ± 50 nM | 230 ± 30 nM | > 10000 nM | ≥ 10000 nM | 55.23% | 77.28% | – | [Br-].[Br-].c1cc2c(N3CCCC3)nc[n+](Cc3ccc(OCCOc4ccc(C[n+]5cnc(N6CCCC6)c6ccsc65)cc4)cc3)c2s1 [Ff-4] | > 10000 nM | > 10000 nM
8610 ± 1300 nM | 470 ± 40 nM | 870 ± 50 nM | 400 ± 50 nM | 210 ± 30 nM | 1480 ± 40 nM | 8570 ± 2800 nM | 89.95% | 95.88% | – | [Br-].[Br-].c1cc2c(s1)c(N1CCCC1)nc[n+]2Cc1ccc(CCCCc2ccc(C[n+]3cnc(N4CCCC4)c4sccc43)cc2)cc1 [Ff-7] | 2930 ± 200 nM | 2330 ± 300 nM
